1 molecule from PMC10333285, “Structural basis of ligand activation and inhibition in a mammalian TRPV4 ion channel” (Cell Discovery, 2023) can be followed below.

In general, IC50 refers to the concentration at which inhibition is half-maximal.

The target of assay [1] is TRPV4 (mTRPV4) (Mus musculus, UniProt Q9EPK8, D682A). Put plainly: patch-clamp inhibition of GSK101-activated mutant channel. The assay is classed as cell-based. Background: In patch-clamp work, channel activity is measured electrically.
TRPV4 (mTRPV4) (Mus musculus, UniProt Q9EPK8, D682A), sequence (Q9EPK8 whole entry D682A): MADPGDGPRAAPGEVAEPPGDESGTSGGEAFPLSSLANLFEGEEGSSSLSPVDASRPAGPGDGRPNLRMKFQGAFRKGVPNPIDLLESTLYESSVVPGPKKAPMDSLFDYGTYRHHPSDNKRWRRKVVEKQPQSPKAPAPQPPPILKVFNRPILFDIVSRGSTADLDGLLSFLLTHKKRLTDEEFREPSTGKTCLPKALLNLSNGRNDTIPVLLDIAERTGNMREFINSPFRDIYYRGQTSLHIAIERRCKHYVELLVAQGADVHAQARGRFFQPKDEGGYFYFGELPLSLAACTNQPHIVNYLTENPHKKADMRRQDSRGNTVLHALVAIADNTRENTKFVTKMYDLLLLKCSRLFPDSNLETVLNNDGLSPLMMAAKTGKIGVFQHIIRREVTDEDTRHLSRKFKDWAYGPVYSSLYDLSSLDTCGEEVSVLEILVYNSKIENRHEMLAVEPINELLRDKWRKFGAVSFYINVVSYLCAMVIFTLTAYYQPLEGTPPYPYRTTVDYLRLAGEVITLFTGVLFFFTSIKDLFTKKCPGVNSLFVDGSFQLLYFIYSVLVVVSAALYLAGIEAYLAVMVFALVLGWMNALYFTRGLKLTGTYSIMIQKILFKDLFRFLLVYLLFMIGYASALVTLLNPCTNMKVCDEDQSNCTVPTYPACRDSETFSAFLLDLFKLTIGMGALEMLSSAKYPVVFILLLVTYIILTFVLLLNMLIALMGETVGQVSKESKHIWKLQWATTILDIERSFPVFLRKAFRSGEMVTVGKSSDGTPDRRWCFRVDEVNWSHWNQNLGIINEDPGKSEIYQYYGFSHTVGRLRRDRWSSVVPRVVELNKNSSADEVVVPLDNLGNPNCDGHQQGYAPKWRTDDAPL
Assay [2] deals with TRPV4 (mTRPV4) (Mus musculus, UniProt Q9EPK8). Put plainly: cryo-EM structure with GSK101 also bound ([…] Å); patch-clamp inhibition IC50. The assay is classed as cell-based.
TRPV4 (mTRPV4) (Mus musculus, UniProt Q9EPK8), sequence (Q9EPK8 whole entry): as the sequence (Q9EPK8 whole entry D682A) above, with A682D counted along it

As for `Cl.Cl.Cl.Cl.Cl.Cl.N.N.N.N.N.N.N.N.N.N.N.N.N.N.[O-2].[O-2].[Ru+3].[Ru+3].[Ru+4]` [ruthenium red], the half-maximal inhibitory concentration (IC50) stood at 15.6 ± 3.2 µM against TRPV4 (mTRPV4) [1] and 0.3 ± 0.1 µM at TRPV4 (mTRPV4) [2].
